Assay results from patent US20120245137A1 (Zalicus Pharmaceuticals Ltd., priority 2009, published 2012).
pIC50: −log10 of the molar value. Read-outs that look alike come from different tables or passages of the source.

How the values were obtained:
Format in all cases: cell-based
Human Cav 2.2 channels = Human Cav 2.2 channels (Homo sapiens, UniProt Q00975); assay: Fluorescent assay for CaV2.2 channels using potassium depolarization (VIPR/FLIPR); conditions: FLIPR data
Description: Human Cav 2.2 channels were stably expressed in HEK293 cells along with alpha2-delta and beta subunits of voltage-gated calcium channels. An inwardly rectifying potassium channel (Kir2.3) was also expressed in these cells to allow more precise control of the cell membrane potential by extracellular potassium concentration. At low bath potassium concentration, the membrane potential is relatively negative, and is depolarized as the bath potassium concentration is raised. In this way, the bath potassium concentration can be used to regulate the voltage-dependent conformations of the channels. […] After the incubation period, Cav2.2 channel opening is triggered by addition of higher concentration of potassium (70 mM final concentration) to further depolarize the cell. The degree of state-dependent block can be estimated from the inhibitory potency of compounds after incubation in different potassium concentrations.
Calcium influx through Cav 2.2 channels is determined using a calcium sensitive fluorescent dye in combination with a fluorescent plate reader. Fluorescent changes were measured with either a VIPR (Aurora Instruments) or FLIPR (Molecular Devices) plate reader.
1. Seed cells in Poly-D-Lysine Coated 96 or 384-well plate and keep in a 3rC-IO % C02 incubator overnight.
2. Remove media, wash cells with 0.2 mL (96-well plate) or 0.05 mL (384-well plate) Dulbecco's Phosphate Buffered Saline (D-PBS) with calcium & magnesium (Invitrogen; 14040).
3. Add 0.1 mL (96-well plate) or 0.05 mL (384-well plate) of 4˜M fluor-4 (Molecular Probes; F-14202) and 0.02% Pluronic acid (Molecular Probes; P-3(00) prepared in D-PBS with calcium & magnesium (Invitrogen; 14040) supplemented with 10 mM Glucose & 10 mM HepeslNaOH; pH 7.4.
4. Incubate in the dark at 25° C. for 60-70 min.
5. Remove dye, wash cells with 0.1 mL (96-well plate) or 0.06 mL (384-well plate) of 4, 12, 25, or 30 mM Potassium Pre-polarization Buffer (PPB).
6. Add 0.1 mL (96-well plate) or 0.03 mL (384-well plate) of 4, 12, 25, 30 mM PPB with or without test compound.
7. Incubate in the dark at 25° C. for 30 min
8. Read cell plate on VIPR instrument, Excitation=480 nm, Emission=535 nm.
9. With VIPR continuously reading, add 0.1 mL (96-well plate) or 0.03 mL (384-well plate) of Depolarization Buffer (DB), which is 2× the final assay concentration, to the cell plate.

T-type calcium channel = T-type calcium channel (Homo sapiens, UniProt O95180); assay: T-type channel blocking, FLIPR data (Table 6)
Description: Another method, high-throughput spectrophotometric assay, utilizes loading of the cell lines with a fluorescent dye sensitive to intracellular calcium concentration and subsequent examination of the effects of compounds on the ability of depolarization by potassium chloride or other means to alter intracellular calcium levels.

CAv1.2 = CAv1.2 (Homo sapiens, UniProt Q13936); assay: FLIPR data, CAv1.2 channel blocking (Table 6)
[1] = closed state, read-out: CAv2.2 IC50 Closed
[2] = inactivated state, read-out: CAv2.2 IC50 Inact.
[3] = CAv3.2, inactivated state, read-out: CAv3.2 IC50 Inact.
[4] = CAv3.2, closed state, read-out: CAv3.2 IC50 Closed
[5] = CAv3.2, ratio closed/inactivated IC50
[6] = closed state, read-out: CAv1.2 IC50 Closed
[7] = inactivated state, read-out: CAv1.2 IC50 Inact.

Chain of CAv1.2 (Q13936 whole entry): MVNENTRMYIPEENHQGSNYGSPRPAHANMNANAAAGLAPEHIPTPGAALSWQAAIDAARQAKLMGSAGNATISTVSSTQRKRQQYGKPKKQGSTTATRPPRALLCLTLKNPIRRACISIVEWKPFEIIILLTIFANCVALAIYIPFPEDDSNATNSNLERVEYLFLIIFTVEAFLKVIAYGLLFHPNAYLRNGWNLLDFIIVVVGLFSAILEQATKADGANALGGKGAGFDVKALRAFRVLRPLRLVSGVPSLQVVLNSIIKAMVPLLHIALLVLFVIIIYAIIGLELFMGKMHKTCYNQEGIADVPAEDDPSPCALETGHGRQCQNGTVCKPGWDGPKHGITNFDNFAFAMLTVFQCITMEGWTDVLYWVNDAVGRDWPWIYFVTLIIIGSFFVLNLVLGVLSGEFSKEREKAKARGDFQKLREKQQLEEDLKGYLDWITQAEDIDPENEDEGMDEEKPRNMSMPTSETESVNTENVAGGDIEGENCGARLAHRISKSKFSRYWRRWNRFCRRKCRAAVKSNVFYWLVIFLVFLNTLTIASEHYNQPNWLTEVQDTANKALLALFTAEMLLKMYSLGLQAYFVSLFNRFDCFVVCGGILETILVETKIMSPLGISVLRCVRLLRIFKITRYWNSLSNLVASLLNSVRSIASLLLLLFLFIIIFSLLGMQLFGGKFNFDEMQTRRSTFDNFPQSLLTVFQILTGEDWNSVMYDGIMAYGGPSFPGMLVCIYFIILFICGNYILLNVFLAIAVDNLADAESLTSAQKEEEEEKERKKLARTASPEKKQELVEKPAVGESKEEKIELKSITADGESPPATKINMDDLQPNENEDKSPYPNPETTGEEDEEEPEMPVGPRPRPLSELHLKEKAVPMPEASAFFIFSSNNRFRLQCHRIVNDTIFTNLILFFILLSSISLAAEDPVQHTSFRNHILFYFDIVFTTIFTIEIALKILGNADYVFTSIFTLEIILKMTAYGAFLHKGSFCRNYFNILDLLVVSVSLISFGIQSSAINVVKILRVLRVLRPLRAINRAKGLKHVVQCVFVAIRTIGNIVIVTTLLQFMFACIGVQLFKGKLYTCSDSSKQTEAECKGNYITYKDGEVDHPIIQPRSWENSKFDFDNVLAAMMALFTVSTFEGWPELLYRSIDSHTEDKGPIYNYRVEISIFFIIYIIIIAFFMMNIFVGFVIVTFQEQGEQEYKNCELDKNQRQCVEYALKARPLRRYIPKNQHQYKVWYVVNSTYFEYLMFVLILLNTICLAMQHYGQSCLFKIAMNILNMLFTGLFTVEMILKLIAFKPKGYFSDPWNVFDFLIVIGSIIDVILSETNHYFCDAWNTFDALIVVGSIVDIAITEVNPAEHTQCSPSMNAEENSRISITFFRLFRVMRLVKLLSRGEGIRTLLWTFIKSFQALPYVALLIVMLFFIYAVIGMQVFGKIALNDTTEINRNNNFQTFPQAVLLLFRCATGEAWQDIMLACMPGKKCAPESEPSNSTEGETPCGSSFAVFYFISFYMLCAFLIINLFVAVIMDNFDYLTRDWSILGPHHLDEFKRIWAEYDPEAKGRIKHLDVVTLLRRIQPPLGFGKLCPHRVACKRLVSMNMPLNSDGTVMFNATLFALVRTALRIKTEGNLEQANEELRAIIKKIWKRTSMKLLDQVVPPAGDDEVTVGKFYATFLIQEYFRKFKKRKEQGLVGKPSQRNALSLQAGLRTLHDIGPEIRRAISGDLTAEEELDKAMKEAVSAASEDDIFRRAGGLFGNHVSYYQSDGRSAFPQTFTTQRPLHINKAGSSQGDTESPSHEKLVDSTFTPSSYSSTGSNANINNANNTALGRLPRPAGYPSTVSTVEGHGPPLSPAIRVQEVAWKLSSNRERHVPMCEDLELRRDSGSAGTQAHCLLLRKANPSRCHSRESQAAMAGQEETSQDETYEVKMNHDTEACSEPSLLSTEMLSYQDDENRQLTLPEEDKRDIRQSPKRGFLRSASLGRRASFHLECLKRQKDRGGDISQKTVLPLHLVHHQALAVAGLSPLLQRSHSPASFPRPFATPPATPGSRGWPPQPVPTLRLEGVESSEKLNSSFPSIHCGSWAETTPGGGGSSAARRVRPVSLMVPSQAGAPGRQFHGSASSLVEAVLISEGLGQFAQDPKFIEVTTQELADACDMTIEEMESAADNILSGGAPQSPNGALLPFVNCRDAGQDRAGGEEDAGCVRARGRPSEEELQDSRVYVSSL
Chain of CAv1.2 (P54289 25-1103 partner): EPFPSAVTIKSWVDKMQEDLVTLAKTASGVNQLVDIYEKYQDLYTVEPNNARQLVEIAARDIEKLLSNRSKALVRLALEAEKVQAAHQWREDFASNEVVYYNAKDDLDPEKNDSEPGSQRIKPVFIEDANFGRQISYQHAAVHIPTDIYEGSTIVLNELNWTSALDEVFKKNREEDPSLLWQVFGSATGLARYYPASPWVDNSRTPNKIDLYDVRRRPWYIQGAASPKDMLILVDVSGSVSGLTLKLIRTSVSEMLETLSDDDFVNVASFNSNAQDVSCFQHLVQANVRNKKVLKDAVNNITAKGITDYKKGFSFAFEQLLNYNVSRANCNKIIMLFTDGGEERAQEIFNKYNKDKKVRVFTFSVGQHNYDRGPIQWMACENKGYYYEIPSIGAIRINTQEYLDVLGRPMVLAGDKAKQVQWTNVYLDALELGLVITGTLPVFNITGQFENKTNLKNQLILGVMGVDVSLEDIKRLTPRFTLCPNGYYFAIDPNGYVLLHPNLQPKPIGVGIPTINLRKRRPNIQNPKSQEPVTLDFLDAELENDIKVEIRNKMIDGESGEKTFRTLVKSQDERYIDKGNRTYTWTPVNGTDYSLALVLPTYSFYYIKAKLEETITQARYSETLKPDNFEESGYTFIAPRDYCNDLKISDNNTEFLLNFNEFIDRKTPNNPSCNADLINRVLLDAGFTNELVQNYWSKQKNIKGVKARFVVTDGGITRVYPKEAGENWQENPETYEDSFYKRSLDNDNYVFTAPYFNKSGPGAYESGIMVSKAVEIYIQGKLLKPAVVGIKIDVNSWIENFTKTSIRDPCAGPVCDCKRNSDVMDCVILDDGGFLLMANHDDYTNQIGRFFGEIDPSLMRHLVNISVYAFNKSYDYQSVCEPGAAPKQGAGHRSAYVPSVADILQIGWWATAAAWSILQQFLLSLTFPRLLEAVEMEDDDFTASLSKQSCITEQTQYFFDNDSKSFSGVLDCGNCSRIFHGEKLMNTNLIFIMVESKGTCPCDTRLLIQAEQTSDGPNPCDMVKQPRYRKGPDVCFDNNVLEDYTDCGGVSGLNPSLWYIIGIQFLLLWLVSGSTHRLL
Chain of CAv1.2 (Q08289 whole entry partner): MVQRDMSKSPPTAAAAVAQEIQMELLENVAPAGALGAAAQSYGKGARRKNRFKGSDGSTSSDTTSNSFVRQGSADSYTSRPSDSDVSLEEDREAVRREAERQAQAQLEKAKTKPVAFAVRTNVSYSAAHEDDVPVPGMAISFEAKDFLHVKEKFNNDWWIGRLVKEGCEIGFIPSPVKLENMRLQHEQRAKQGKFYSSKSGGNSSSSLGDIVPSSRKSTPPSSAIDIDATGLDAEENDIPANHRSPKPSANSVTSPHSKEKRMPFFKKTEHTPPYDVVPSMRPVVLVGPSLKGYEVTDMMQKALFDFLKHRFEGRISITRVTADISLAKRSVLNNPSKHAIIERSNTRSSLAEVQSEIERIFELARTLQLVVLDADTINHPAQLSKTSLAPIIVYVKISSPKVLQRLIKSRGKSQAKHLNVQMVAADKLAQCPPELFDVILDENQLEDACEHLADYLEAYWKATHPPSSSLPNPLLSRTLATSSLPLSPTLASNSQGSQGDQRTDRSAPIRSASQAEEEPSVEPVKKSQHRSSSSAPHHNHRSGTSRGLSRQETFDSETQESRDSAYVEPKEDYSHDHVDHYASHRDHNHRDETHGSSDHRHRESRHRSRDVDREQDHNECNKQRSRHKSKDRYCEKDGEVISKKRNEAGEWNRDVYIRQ

Compound | pIC50 (Human Cav 2.2 channels; [1]) | pIC50 (Human Cav 2.2 channels; [2]) | CAv2.2 IC50 Ratio closed/inact. (Human Cav 2.2 channels; ratio closed/inactivated IC50) | pIC50 (T-type calcium channel; [3]) | pIC50 (T-type calcium channel; [4]) | CAv3.2 IC50 Ratio closed/inact. (T-type calcium channel; [5]) | pIC50 (CAv1.2; [6]) | pIC50 (CAv1.2; [7]) | CAv2.2 IC50 Ratio closed/inact. (Human Cav 2.2 channels; ratio closed/inact.) | CAv3.2 IC50 Ratio closed/inact. (T-type calcium channel; CAv3.2, ratio closed/inact.)
N[C@@H]1CCCC[C@@H]1C(=O)NC[C@H]1C[C@H](S(=O)(=O)c2cccc(OC(F)(F)F)c2)C1 (single isomer, unassigned) [Compound 700] | 5.45 | 5.90 | 2.8 | 5.00 |  |  |  |  |  | 
N[C@@H]1CCCC[C@@H]1C(=O)NC[C@H]1C[C@H](S(=O)(=O)c2cc(F)cc(C(F)(F)F)c2)C1 (single isomer, unassigned) [Compound 707] | 5.00 |  |  | 5.00 |  |  |  |  |  | 
O=C(NC[C@H]1C[C@H](S(=O)(=O)c2cccc(C(F)(F)F)c2)C1)c1ccc(Cl)cn1 [Compound 573] | 5.49 | 6.37 | 7.5 | 5.23 | 5.09 | 1.4 | ≤ 5.00 | ≤ 5.00 |  | 
O=C(NC[C@H]1C[C@H](S(=O)(=O)c2cccc(C(F)(F)F)c2)C1)c1ncc(C(F)(F)F)cn1 [Compound 574] | 5.00 | 5.89 | 7.8 |  |  |  |  |  |  | 
CC(C)([C@H]1C[C@@H](NC(=O)c2ccc(S(C)(=O)=O)cc2Cl)C1)S(=O)(=O)c1cccc(C(F)(F)F)c1 [Compound 577] | 5.00 | 6.19 | 15.6 |  |  |  | ≤ 5.00 | ≤ 5.00 |  | 
CC(C)([C@H]1C[C@@H](NC(=O)c2ncc(C(F)(F)F)cn2)C1)S(=O)(=O)c1cccc(C(F)(F)F)c1 [Compound 583] | 5.00 | 5.95 | 8.9 | 5.00 |  |  | ≤ 5.00 |  |  | 
CC(C)([C@H]1C[C@@H](NC(=O)c2ccc(C(F)(F)F)cc2S(C)(=O)=O)C1)S(=O)(=O)c1cc(F)cc(C(F)(F)F)c1 [Compound 585] | 5.00 | 5.97 | 9.3 | 5.00 | ≤ 5.00 | 1 |  | ≤ 5.00 |  | 
CC(C)([C@H]1C[C@@H](NC(=O)c2ccnc(C(F)(F)F)n2)C1)S(=O)(=O)c1cc(F)cc(C(F)(F)F)c1 [Compound 588] | 5.23 | 6.02 | 6.2 | 5.49 | ≤ 5.00 | 3.1 | ≤ 5.00 | ≤ 5.00 |  | 
CC(C)([C@H]1C[C@H](NC(=O)c2ccc(C(F)(F)F)cc2S(C)(=O)=O)C1)S(=O)(=O)c1cc(F)cc(C(F)(F)F)c1 [Compound 592] | 5.00 | 6.34 | 21.7 | 5.00 | ≤ 5.00 | 1 | ≤ 5.00 | ≤ 5.00 |  | 
Cc1nc(S(=O)(=O)N[C@H]2C[C@@H](C(C)(C)S(=O)(=O)c3cc(F)cc(C(F)(F)F)c3)C2)cn1C [Compound 604] | 5.00 | 5.36 | 2.3 |  | ≤ 5.00 |  | ≤ 5.00 | ≤ 5.00 |  | 
Cc1nc(S(=O)(=O)N[C@H]2C[C@@H](C(C)(C)S(=O)(=O)c3cccc(C(F)(F)F)c3)C2)cn1C [Compound 631] |  | 5.16 | 1.4 |  |  |  |  |  |  | 
CC(C)([C@H]1C[C@@H](NC(=O)c2ncc(C(F)(F)F)cc2S(C)(=O)=O)C1)S(=O)(=O)c1cccc(OC(F)(F)F)c1 [Compound 644] | 5.00 | 6.05 | 11.1 | 5.00 | ≤ 5.00 | 1 |  | ≤ 5.00 |  | 
CC(C)([C@H]1C[C@@H](NC(=O)CC2(N)CCCCC2)C1)S(=O)(=O)c1cccc(C(F)(F)F)c1 [Compound 652] | 5.05 | 5.92 | 7.5 | 5.00 |  |  |  |  |  | 
CC(C)([C@H]1C[C@H](NC(=O)CC2(N)CCCCC2)C1)S(=O)(=O)c1cc(F)cc(C(F)(F)F)c1 [Compound 654] | 5.07 | 5.84 | 5.9 | 5.00 |  |  | ≤ 5.00 | ≤ 5.00 |  | 
CC(C)([C@H]1C[C@@H](NC(=O)CC2(N)CCCCC2)C1)S(=O)(=O)c1cccc(OC(F)(F)F)c1 [Compound 655] | 5.19 | 5.94 | 5.6 | 5.00 |  |  | ≤ 5.00 | ≤ 5.00 |  | 
CC(C)([C@H]1C[C@H](NC(=O)CC2(N)CCCCC2)C1)S(=O)(=O)c1cccc(OC(F)(F)F)c1 [Compound 656] | 5.26 | 6.06 | 6.3 | 5.00 |  |  | ≤ 5.00 | ≤ 5.00 |  | 
CNC1(CC(=O)N[C@H]2C[C@@H](C(C)(C)S(=O)(=O)c3cccc(C(F)(F)F)c3)C2)CCCCC1 [Compound 657] | 5.03 | 5.67 | 4.3 |  |  |  | ≤ 5.00 |  |  | 
CNC1(CC(=O)N[C@H]2C[C@@H](C(C)(C)S(=O)(=O)c3cc(F)cc(C(F)(F)F)c3)C2)CCCCC1 [Compound 658] | 5.00 | 5.58 | 3.8 | 5.00 | ≤ 5.00 | 1 | ≤ 5.00 |  |  | 
Cc1nc(S(=O)(=O)N[C@H]2C[C@H](C(C)(C)S(=O)(=O)c3cccc(C(F)(F)F)c3)C2)cn1C [Compound 670] | 5.00 | 5.06 | 1.2 |  |  |  |  |  |  | 
CC(C)([C@H]1C[C@H](NC(=O)c2ncc(C(F)(F)F)cn2)C1)S(=O)(=O)c1cccc(C(F)(F)F)c1 [Compound 678] | 5.05 | 6.10 | 11.3 |  |  |  |  |  |  | 
CC(C)([C@H]1C[C@H](NC(=O)c2ccc(Cl)cc2S(C)(=O)=O)C1)S(=O)(=O)c1cccc(C(F)(F)F)c1 [Compound 679] | 5.00 | 6.32 | 20.8 | 5.00 | ≤ 5.00 | 1 |  |  |  | 
CC(C)([C@H]1C[C@H](NC(=O)c2ccc(S(C)(=O)=O)cc2Cl)C1)S(=O)(=O)c1cccc(C(F)(F)F)c1 [Compound 680] | 5.00 | 5.88 | 7.6 | 5.00 | ≤ 5.00 | 1 |  |  |  | 
N[C@H]1CCCC[C@@H]1C(=O)NC[C@H]1C[C@H](S(=O)(=O)c2cccc(OC(F)(F)F)c2)C1 [Compound 713] |  |  |  | 5.00 |  |  |  |  |  | 
CC(C)(C[C@H]1C[C@H](NC(=O)[C@H]2CCCC[C@H]2N)C1)S(=O)(=O)c1cccc(C(F)(F)F)c1 [Compound 742] | 5.47 | 5.98 |  | 5.00 |  |  |  |  | 3.2 | 
O=C(c1ccc(C(F)(F)F)cn1)N1CC(CS(=O)(=O)c2cc(F)cc(C(F)(F)F)c2)C1 [Compound 746] |  | ≤ 5.00 |  | 5.00 | ≤ 5.00 |  |  |  |  | 1
O=C(NC[C@H]1C[C@H](S(=O)(=O)c2cccc(Cl)c2)C1)c1cnc(C(F)(F)F)nc1 [Compound 773] |  | 5.01 |  | 5.00 | ≤ 5.00 |  |  |  | 1 | 1
NC1(CC(=O)NC[C@H]2C[C@H](S(=O)(=O)c3cccc(Cl)c3)C2)CCCCC1 [Compound 776] | 5.00 | 5.03 |  | 5.00 |  |  |  |  | 1.1 | 
N[C@@H]1CCCC[C@H]1C(=O)NC[C@H]1C[C@H](S(=O)(=O)c2cccc(Cl)c2)C1 [Compound 777] | 5.00 | ≤ 5.00 |  | 5.00 |  |  |  |  | 1 | 
N[C@H]1CCCC[C@H]1C(=O)NC[C@H]1C[C@H](S(=O)(=O)c2cccc(Cl)c2)C1 [Compound 778] |  | ≤ 5.00 |  | 5.00 |  |  |  |  |  | 
